What was measured:
Assay type in all cases: physicochemical
[1] = Krafft point determination; details: 0.1% in water
Protocol: The temperature at and above which surfactants begin to form micelles instead of precipitates is referred to as the Krafft point (Tk) and at this temperature the solubility of a surfactant becomes equal to its CMC (numerical value at which micelles are formed).
The Krafft point was measured by preparing 650 ml of a 0.1% or 1.0% dispersion of aldonamide in water by weight. If the surfactant was soluble at room temperature, the solution was slowly cooled to 0° C. […] (less than zero). If it precipitated out of solution, the temperature at which precipitation occurs was taken as the Krafft point.
If the surfactant was insoluble at room temperature, the dispersion was slowly heated until the solution became homogeneous. It was then slowly cooled until precipitation occurred. The temperature at which the surfactant precipitates out of solution upon cooling was taken as the Krafft point.

[2] = Ross-Miles foam height assay of aldonamides (Examples 81-84); details: 0.1% aldonamide, 40° C. (if not soluble, about 5°-10° C. above Krafft point), 0 ppm hardness; for Foam Height Final: after 10 minutes
Protocol: In the Ross-Miles method, 200 mL of a suffactant solution contained in a pipette of specified dimensions with a 2.9 -mm-i.d. orifice is allowed to fall 90 cm onto 50 mL of the same solution contained in a cylindrical vessel maintained at a given temperature by means of a water jacket. The height of the foam produced in the cylindrical vessel is read immediately after all the solution has run out of the pipette and then again after a given amount of time.
Using this method, the foam production (initial foam height in mm) and foam stability (final foam height after 10 minutes in mm) were measured at 0.1% aldonamtde concentration, 40° C. and 0 ppm (parts per million) hardness.

[3] = Clarity of prototype shampoo compositions with sodium lauryl sulfate (Example 87); details: room temperature, 6 months
Protocol: (§1) The prototype shampoo composition is as follows:
(§2) The above formulations were prepared by admixing the above ingredients in listed order and heating the mixture to about 80° C. with rapid stirring. The mixture was then cooled to about 40° C., placed in a clear jar and stored at room temperature for 6 months.

[4] = Viscosity of prototype shampoo compositions with sodium lauryl sulfate, Brookfield Digital Viscometer (Example 88); details: vs no thickener
Protocol: as §1, §2
It is well known that the viscosity of a liquid composition comprising of anionic surfactant can be modified by the addition of inorganic salts, such as sodium chloride. However, in the absence of an organic modifier, high levels of salt may be necessary to achieve the required viscosity which may lead to problems of storage at cold temperature or even salting out certain ingredients. In practice, however, the viscosity of a liquid composition is modified by the simultaneous addition of thickener and small amounts of inorganic salt (viscosity cobuilder). The combined effect is greater than either one alone. The viscosity of the above prototype shampoo composition comprising various amounts of heteroatom containing alkyl aldonamide compound is as follows: […]

[5] = 5.0% thickener in […] sodium lauryl sulfate shampoo
[6] = 3.0% thickener in […] sodium lauryl sulfate shampoo

Row | Compound | Krafft Point (0.1%) [1] [°C] | Foam Height Initial [2] | Foam Height Final [2] [mm] | Appearance (Time) ([3]; 4.0% thickener in […] sodium lauryl sulfate shampoo) | Appearance (Time) [3, 5] | Appearance (Time) [3, 6] | Increase (viscosity) ([4]; 3.0% thickener) [×] | Increase (viscosity) ([4]; 5.0% thickener) [×]
1 | CCCCCCCCCCCCCNC(=O)[C@H](O)[C@@H](O)[C@H](O[C@@H]1O[C@H](CO)[C@H](O)[C@H](O)[C@H]1O)[C@H](O)CO [C13 D-Lactobionamide] | 70 |  |  |  |  |  |  | 
2 | CCCCCCCCCCCCCCCCNC(=O)[C@H](O)[C@@H](O)[C@H](O[C@@H]1O[C@H](CO)[C@H](O)[C@H](O)[C@H]1O)[C@H](O)CO [C16 D-Lactobionamide] | 64 | 95 mm | 95 |  |  |  |  | 
3 | CCCCCCCCCNC(=O)[C@H](O)[C@@H](O)[C@H](O)[C@H](O)CO [C9 D-Gluconamide] |  | 0 mm | 0 | Precipitate (2 weeks) | Precipitate (2 weeks) |  |  | 
4 | CCCCCCCCCCCNC(=O)[C@H](O)[C@@H](O)[C@H](O[C@@H]1O[C@H](CO)[C@H](O)[C@H](O)[C@H]1O)[C@H](O)CO [C11 D-Lactobionamide] | 61 | 0 mm | 0 |  |  |  |  | 
5 | CCCCCCCCCNC(=O)[C@H](O)[C@@H](O)[C@H](O[C@@H]1O[C@H](CO)[C@H](O)[C@H](O)[C@H]1O)[C@H](O)CO [C9 D-Lactobionamide, Nonyl D-Lactobionamide] | 42 | 0 mm | 0 |  |  |  |  | 
6 | CCCCCCCC/C=C\CCCCCCCCNCCCNC(=O)[C@H](O)[C@@H](O)[C@H](O[C@@H]1O[C@H](CO)[C@H](O)[C@H](O)[C@H]1O)[C@H](O)CO [Oleylaminopropyl D-Lactobionamide] | < 0 | 169 mm | 165 |  |  |  |  | 
7 | CCCCCCCCCCNC(=O)[C@H](O)[C@@H](O)[C@H](O)[C@H](O)CO [C10 D-Gluconamide] |  | 199 mm | 6 |  | Precipitate (5 days) | Precipitate (1 week) |  | 
8 | Dodecyl to Pentadecyloxypropylaminopropyl D-Lactobionamide | < 0 | 173 mm | 169 |  |  |  |  | 
9 | Octyl/Decyloxypropyl D-Lactobionamide [C8 /C10 Oxypropyl D-Lactobionamide] | < 0 | 168 mm | 158 |  | Clear | Clear |  | 
10 | CCCCCCCCCCCCOCCCNC(=O)[C@H](O)[C@@H](O)[C@H](O[C@@H]1O[C@H](CO)[C@H](O)[C@H](O)[C@H]1O)[C@H](O)CO [C12 Oxypropyl D-Lactobionamide, Dodecyloxypropyl D-Lactobionamide] | < 0 | 165 mm | 154 |  |  |  | 23 | 97
11 | CCCCCCCCCCCCNC(=O)C(O)C(O)C(O)C(O)C(O)C(O)CO [C12 D-Glucooctonamide] | 86 |  |  |  |  |  |  | 
12 | CCCCCCCCCCCCCCOCCCNC(=O)[C@H](O)[C@@H](O)[C@H](O[C@@H]1O[C@H](CO)[C@H](O)[C@H](O)[C@H]1O)[C@H](O)CO [C14 Oxypropyl D-Lactobionamide, Tetradecyloxypropyl D-Lactobionamide] | < 0 | 163 mm | 154 |  |  |  |  | 
13 | Dodecyl to Pentadecyloxypropyl D-Lactobionamide [C12 -C15 Oxypropyl D-Lactobionamide] | < 0 | 166 mm | 155 |  |  |  |  | 
14 | CCCCCCCCCCCCOC(=O)CNC(=O)[C@H](O)[C@@H](O)[C@H](O[C@@H]1O[C@H](CO)[C@H](O)[C@H](O)[C@H]1O)[C@H](O)CO [D-Lactobionyl C12 Glycinate, N-D-Lactobionyl Dodecyl Glycinate] | < 0 | 161 mm | 153 |  |  |  |  | 
15 | CCCCCCCCCCCCCCCNC(=O)[C@H](O)[C@@H](O)[C@H](O[C@@H]1O[C@H](CO)[C@H](O)[C@H](O)[C@H]1O)[C@H](O)CO [C15 D-Lactobionamide] | 84 |  |  |  |  |  |  | 
16 | CCCCCCCCCCCCOCCCNC(=O)[C@H](O)[C@@H](O)[C@H](O[C@H]1O[C@H](CO)[C@@H](O)[C@H](O)[C@H]1O)[C@H](O)CO [C12 Oxypropyl D-Maltobionamide, Dodecyloxypropyl D-Maltobionamide] | < 0 | 163 mm | 155 |  |  |  |  | 
17 | CCCCCCCCCCCCCCNC(=O)[C@H](O)[C@@H](O)[C@H](O[C@H]1O[C@H](CO)[C@@H](O)[C@H](O)[C@H]1O)[C@H](O)CO [C14 D-Maltobionamide] | 46 |  |  |  |  |  |  | 
18 | Cocoaminopropyl D-Gluconamide |  | 186 mm | 182 |  | Clear | Clear |  | 
19 | CCCCCCCCCCCCCCNC(=O)[C@H](O)[C@@H](O)[C@H](O[C@@H]1O[C@H](CO)[C@H](O)[C@H](O)[C@H]1O)[C@H](O)CO [C14 D-Lactobionamide] | 18 | 141 mm | 59 |  |  |  |  | 
20 | CCCCCCCCCCCCOCCCNC(=O)[C@H](O)[C@@H](O)[C@H](O)[C@H](O)CO [C12 Oxypropyl D-Gluconamide] |  | 200 mm | 110 |  | Precipitate (5 months) | Clear | 120 | 1373
21 | CCCCCCCCCCCCOC(=O)CCNC(=O)[C@H](O)[C@@H](O)[C@H](O[C@@H]1O[C@H](CO)[C@H](O)[C@H](O)[C@H]1O)[C@H](O)CO [D-Lactobionyl C12 β-Alaninate, N-D-Lactobionyl Dodecyl β-Alaninate] | < 0 | 159 mm | 152 |  |  |  |  | 
22 | Cocoaminopropyl D-Lactobionamide | < 0 | 171 mm | 168 |  |  |  |  | 
23 | CCCCCCCCCCCCCCCCCCNC(=O)[C@H](O)[C@@H](O)[C@H](O[C@@H]1O[C@H](CO)[C@H](O)[C@H](O)[C@H]1O)[C@H](O)CO [C18 D-Lactobionamide] | 82 |  |  |  |  |  |  | 
24 | CCCCCCCCCCCCNC(=O)[C@H](O)[C@H](O)[C@@H](O)[C@@H](O)CO [C12 L-Mannonamide] |  | Insoluble |  |  |  |  |  | 
25 | dodecyl to pentadecyloxypropylaminopropyl D-gluconamide |  | 180 mm | 176 |  |  |  |  | 
26 | dodecyl to pentadecyloxypropyl D-gluconamide [C12 -C15 Oxypropyl D-Gluconamide] |  | 200 mm | 110 |  |  |  |  | 
27 | CCCCCCCCCCCCNC(=O)[C@H](O)[C@@H](O)[C@H](O[C@@H]1O[C@H](CO)[C@H](O)[C@H](O)[C@H]1O)[C@H](O)CO [C12 D-Lactobionamide] | 38 | 153 mm | 20 |  |  |  |  | 
28 | Coco D-Gluconamide |  |  |  |  | Precipitate (2 hours) | Precipitate (1 day) |  | 

Source: patent US5641480A, “Hair care compositions comprising heteroatom containing alkyl aldonamide compounds” (Lever Brothers Company, Division of Conopco, Inc., priority 1994, dated 1997)
